In patent US10844077B2, “Thiazolyl-containing compounds for treating proliferative diseases” (Dana-Farber Cancer Institute, Inc., priority 2014, dated 2020):
Where “and” joins values, the source holds several entries; their conditions need not be identical. Equal values may be shown once.

What follows are molecules tested on PI4KA, PI4KAP2 (assay: KINATIV assay). Conditions: 1 μM, 90 minutes, BCWM.1 cells.
Format: cell-based
Outline: (§1)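 Duplicate compound samples were compared with duplicate or quadruplicate controls. After harvesting and lysis, cells' lysates were probe-labeled (ATP-biotin), and kinase labeling was quantitated by ACTIVX.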
In the case of `C=CC(=O)N1CCC(CNc2nccc(Nc3ncc(C(=O)Nc4c(C)cccc4C)s3)n2)C1` (racemic) [Example I-8], the “% change of MS signal compared to control sample” value (shortened to “% change of MS signal”) is reported as −9.9%.

Each molecule was assayed against CK1g2 (Homo sapiens (Human), UniProt P78368) (assay: KINATIV assay). Conditions: 1 μM, 90 minutes, BCWM.1 cells.
CK1g2, sequence (P78368 whole entry): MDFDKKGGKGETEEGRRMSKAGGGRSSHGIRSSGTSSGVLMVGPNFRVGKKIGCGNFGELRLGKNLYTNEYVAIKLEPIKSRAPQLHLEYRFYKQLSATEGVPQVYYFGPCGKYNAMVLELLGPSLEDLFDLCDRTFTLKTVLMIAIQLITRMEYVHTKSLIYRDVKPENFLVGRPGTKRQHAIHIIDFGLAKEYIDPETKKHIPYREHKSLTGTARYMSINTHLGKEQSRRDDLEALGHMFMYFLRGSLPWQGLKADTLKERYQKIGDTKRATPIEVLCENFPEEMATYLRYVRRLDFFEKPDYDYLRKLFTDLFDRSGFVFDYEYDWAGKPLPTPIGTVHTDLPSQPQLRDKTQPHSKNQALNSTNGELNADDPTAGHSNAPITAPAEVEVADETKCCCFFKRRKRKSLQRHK
Format: cell-based
Outline: as §1
`C=CC(=O)N1CCC(CNc2nccc(Nc3ncc(C(=O)Nc4c(C)cccc4C)s3)n2)C1` (racemic) [Example I-8] was tested, and the “% change of MS signal” value was −6.1%.

Each molecule was assayed against TEC (Homo sapiens (Human), UniProt P42680) (assay: KINATIV assay). Conditions: 1 μM, 90 minutes, BCWM.1 cells.
TEC, sequence (P42680 whole entry): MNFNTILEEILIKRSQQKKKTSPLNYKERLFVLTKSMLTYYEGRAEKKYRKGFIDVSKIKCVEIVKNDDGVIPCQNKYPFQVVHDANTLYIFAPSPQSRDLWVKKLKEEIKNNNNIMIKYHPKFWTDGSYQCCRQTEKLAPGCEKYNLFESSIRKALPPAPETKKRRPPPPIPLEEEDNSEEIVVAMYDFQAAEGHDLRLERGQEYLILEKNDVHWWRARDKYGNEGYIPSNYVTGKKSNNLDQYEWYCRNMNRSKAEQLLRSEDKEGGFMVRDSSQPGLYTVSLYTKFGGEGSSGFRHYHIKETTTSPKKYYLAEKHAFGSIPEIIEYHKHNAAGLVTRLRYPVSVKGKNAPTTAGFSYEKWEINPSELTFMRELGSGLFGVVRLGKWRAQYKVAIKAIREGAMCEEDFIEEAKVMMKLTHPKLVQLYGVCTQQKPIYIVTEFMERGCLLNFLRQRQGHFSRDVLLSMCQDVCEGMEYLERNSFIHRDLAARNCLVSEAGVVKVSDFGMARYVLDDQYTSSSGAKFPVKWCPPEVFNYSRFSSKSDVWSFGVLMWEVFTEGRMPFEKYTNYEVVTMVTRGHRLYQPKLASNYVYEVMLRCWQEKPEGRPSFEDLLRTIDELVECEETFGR
Format: cell-based
Outline: as §1
In the case of `C=CC(=O)N1CCC(CNc2nccc(Nc3ncc(C(=O)Nc4c(C)cccc4C)s3)n2)C1` (racemic) [Example I-8], the “% change of MS signal” value is reported as 79.5% and 71.1%.

The molecules below were run against RSK3 (Homo sapiens (Human), UniProt Q15349) (assay: KINATIV assay). Conditions: 1 μM, 90 minutes, BCWM.1 cells.
Format: cell-based
Outline: as §1
For `C=CC(=O)N1CCC(CNc2nccc(Nc3ncc(C(=O)Nc4c(C)cccc4C)s3)n2)C1` (racemic) [Example I-8], the “% change of MS signal” value was 2.9%.

Each molecule was assayed against YSK1 (Homo sapiens (Human), UniProt O00506) (assay: KINATIV assay). Conditions: 1 μM, 90 minutes, BCWM.1 cells.
YSK1, sequence (O00506 whole entry): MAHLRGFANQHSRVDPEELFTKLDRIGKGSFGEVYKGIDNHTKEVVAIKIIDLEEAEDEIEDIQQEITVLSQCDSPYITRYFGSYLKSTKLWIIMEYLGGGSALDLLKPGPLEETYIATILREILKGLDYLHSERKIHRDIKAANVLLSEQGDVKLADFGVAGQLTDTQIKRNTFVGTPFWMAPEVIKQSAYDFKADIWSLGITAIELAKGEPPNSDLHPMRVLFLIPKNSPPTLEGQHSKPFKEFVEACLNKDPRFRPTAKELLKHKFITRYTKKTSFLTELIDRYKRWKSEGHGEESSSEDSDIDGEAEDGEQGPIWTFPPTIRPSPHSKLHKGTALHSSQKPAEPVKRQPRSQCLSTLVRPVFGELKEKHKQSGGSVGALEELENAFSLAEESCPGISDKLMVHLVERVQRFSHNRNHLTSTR
Format: cell-based
Outline: as §1
In the case of `C=CC(=O)N1CCC(CNc2nccc(Nc3ncc(C(=O)Nc4c(C)cccc4C)s3)n2)C1` (racemic) [Example I-8], the “% change of MS signal” value is reported as −29.2%.

The molecules below were run against MSK1 domain1 (Homo sapiens (Human), UniProt O75582) (assay: KINATIV assay). Conditions: 1 μM, 90 minutes, BCWM.1 cells.
Format: cell-based
Outline: as §1
For `C=CC(=O)N1CCC(CNc2nccc(Nc3ncc(C(=O)Nc4c(C)cccc4C)s3)n2)C1` (racemic) [Example I-8], the “% change of MS signal” value was −45.5%.

The molecules below were run against PYK2 (Homo sapiens (Human), UniProt Q14289) (assay: KINATIV assay). Conditions: 1 μM, 90 minutes, BCWM.1 cells.
PYK2, sequence (Q14289 whole entry): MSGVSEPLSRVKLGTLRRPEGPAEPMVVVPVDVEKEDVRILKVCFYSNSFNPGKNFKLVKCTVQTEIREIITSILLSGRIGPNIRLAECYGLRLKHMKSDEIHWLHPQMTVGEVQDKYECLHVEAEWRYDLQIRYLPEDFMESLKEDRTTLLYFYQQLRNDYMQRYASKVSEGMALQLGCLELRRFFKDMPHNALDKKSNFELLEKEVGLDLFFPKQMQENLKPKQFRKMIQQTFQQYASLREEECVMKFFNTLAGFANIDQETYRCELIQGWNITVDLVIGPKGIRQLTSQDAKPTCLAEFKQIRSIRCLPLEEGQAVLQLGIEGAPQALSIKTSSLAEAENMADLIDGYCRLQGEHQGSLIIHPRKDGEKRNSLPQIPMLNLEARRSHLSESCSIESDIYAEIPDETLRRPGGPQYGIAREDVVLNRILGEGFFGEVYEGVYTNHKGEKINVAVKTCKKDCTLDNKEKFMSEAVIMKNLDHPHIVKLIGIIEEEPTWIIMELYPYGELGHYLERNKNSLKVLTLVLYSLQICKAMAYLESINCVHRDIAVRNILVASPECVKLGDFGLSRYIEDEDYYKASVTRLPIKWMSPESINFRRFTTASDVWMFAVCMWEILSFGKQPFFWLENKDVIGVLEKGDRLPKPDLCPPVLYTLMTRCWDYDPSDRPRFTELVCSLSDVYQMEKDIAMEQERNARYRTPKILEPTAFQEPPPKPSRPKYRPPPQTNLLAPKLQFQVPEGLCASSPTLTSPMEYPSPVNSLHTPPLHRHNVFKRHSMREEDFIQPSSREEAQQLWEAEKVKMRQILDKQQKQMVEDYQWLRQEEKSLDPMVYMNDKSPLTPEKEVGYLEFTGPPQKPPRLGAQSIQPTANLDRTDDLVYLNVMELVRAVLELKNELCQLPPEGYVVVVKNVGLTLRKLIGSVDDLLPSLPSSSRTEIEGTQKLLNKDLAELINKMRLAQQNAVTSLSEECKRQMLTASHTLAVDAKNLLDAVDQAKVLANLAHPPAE
Format: cell-based
Outline: as §1
`C=CC(=O)N1CCC(CNc2nccc(Nc3ncc(C(=O)Nc4c(C)cccc4C)s3)n2)C1` (racemic) [Example I-8] was tested, and the “% change of MS signal” value was 20.3% and 25.5%.

Each molecule was assayed against MAP3K5 (Homo sapiens (Human), UniProt Q99683) (assay: KINATIV assay). Conditions: 1 μM, 90 minutes, BCWM.1 cells.
MAP3K5, sequence (Q99683 whole entry): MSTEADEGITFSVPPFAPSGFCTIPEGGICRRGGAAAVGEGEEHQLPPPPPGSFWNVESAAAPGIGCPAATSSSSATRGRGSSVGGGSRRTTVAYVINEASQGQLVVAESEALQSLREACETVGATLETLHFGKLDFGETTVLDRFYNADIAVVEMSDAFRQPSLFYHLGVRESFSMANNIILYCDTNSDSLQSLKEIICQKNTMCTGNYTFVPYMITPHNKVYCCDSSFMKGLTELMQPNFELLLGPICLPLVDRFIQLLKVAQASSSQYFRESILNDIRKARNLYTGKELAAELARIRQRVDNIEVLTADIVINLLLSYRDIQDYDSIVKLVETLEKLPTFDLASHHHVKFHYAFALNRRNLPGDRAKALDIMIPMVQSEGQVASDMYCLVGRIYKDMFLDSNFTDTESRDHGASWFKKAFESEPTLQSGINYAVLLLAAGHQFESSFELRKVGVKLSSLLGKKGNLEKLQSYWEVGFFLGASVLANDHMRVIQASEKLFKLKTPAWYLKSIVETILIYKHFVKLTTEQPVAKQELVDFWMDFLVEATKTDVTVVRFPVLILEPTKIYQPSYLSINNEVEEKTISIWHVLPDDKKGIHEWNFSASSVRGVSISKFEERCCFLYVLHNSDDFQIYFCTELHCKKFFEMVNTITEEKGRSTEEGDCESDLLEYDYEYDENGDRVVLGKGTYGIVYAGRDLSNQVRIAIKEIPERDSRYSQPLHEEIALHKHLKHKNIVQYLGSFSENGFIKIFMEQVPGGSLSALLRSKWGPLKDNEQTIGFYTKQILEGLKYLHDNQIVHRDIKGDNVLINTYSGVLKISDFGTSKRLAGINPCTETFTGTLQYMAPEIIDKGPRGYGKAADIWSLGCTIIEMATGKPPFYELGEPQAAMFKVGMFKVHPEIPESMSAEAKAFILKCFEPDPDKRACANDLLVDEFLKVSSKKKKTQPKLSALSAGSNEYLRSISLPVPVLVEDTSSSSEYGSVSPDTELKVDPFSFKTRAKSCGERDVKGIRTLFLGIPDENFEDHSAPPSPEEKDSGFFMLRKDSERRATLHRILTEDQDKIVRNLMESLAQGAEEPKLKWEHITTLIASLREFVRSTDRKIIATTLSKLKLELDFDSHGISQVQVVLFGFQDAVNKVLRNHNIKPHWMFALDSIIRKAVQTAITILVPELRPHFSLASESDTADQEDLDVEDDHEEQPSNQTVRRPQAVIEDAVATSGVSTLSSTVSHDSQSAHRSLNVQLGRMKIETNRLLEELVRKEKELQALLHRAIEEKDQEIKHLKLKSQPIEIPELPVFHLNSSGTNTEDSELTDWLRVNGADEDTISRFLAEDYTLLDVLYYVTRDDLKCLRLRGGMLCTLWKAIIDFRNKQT
Format: cell-based
Outline: as §1
With `C=CC(=O)N1CCC(CNc2nccc(Nc3ncc(C(=O)Nc4c(C)cccc4C)s3)n2)C1` (racemic) [Example I-8] the “% change of MS signal” value was −0.7%.

These molecules were tested against NEK7 (Homo sapiens (Human), UniProt Q8TDX7) (assay: KINATIV assay). Conditions: 1 μM, 90 minutes, BCWM.1 cells.
NEK7, sequence (Q8TDX7 whole entry): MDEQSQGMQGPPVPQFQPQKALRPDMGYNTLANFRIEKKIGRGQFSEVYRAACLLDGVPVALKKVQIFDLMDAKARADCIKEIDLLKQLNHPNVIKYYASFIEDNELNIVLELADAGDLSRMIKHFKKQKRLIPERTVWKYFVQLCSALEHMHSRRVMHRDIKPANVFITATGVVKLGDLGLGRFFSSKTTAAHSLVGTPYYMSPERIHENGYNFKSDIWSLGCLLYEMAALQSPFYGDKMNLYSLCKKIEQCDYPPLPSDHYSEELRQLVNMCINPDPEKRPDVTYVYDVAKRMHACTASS
Format: cell-based
Outline: as §1
For `C=CC(=O)N1CCC(CNc2nccc(Nc3ncc(C(=O)Nc4c(C)cccc4C)s3)n2)C1` (racemic) [Example I-8], the “% change of MS signal” value was −1.0%.

These molecules were tested against PIK3C2B (Homo sapiens (Human), UniProt O00750) (assay: KINATIV assay). Conditions: 1 μM, 90 minutes, BCWM.1 cells.
Format: cell-based
Outline: as §1
In the case of `C=CC(=O)N1CCC(CNc2nccc(Nc3ncc(C(=O)Nc4c(C)cccc4C)s3)n2)C1` (racemic) [Example I-8], the “% change of MS signal” value is reported as 12.5%.

Each molecule was assayed on Wnk1, Wnk2 (assay: KINATIV assay). Conditions: 1 μM, 90 minutes, BCWM.1 cells.
Format: cell-based
Outline: as §1
With `C=CC(=O)N1CCC(CNc2nccc(Nc3ncc(C(=O)Nc4c(C)cccc4C)s3)n2)C1` (racemic) [Example I-8] the “% change of MS signal” value was −16.4%.

Each molecule was assayed against LRRK2 (Homo sapiens (Human), UniProt Q5S007) (assay: KINATIV assay). Conditions: 1 μM, 90 minutes, BCWM.1 cells.
Format: cell-based
Outline: as §1
`C=CC(=O)N1CCC(CNc2nccc(Nc3ncc(C(=O)Nc4c(C)cccc4C)s3)n2)C1` (racemic) [Example I-8] was tested, and the “% change of MS signal” value was −12.2%.

Each molecule was assayed on AurA, AurB, AurC (assay: KINATIV assay). Conditions: 1 μM, 90 minutes, BCWM.1 cells.
Format: cell-based
Outline: as §1
In the case of `C=CC(=O)N1CCC(CNc2nccc(Nc3ncc(C(=O)Nc4c(C)cccc4C)s3)n2)C1` (racemic) [Example I-8], the “% change of MS signal” value is reported as −2.9%.

These molecules were tested against OSR1 (Homo sapiens (Human), UniProt O95747) (assay: KINATIV assay). Conditions: 1 μM, 90 minutes, BCWM.1 cells.
Format: cell-based
Outline: as §1
For `C=CC(=O)N1CCC(CNc2nccc(Nc3ncc(C(=O)Nc4c(C)cccc4C)s3)n2)C1` (racemic) [Example I-8], the “% change of MS signal” value was 27.9%.

These molecules were tested on MST4, YSK1 (assay: KINATIV assay). Conditions: 1 μM, 90 minutes, BCWM.1 cells.
Format: cell-based
Outline: as §1
For `C=CC(=O)N1CCC(CNc2nccc(Nc3ncc(C(=O)Nc4c(C)cccc4C)s3)n2)C1` (racemic) [Example I-8], the “% change of MS signal” value was 19.3%.

Each molecule was assayed against CaMK1d (Homo sapiens (Human), UniProt Q8IU85) (assay: KINATIV assay). Conditions: 1 μM, 90 minutes, BCWM.1 cells.
CaMK1d, sequence (Q8IU85 whole entry): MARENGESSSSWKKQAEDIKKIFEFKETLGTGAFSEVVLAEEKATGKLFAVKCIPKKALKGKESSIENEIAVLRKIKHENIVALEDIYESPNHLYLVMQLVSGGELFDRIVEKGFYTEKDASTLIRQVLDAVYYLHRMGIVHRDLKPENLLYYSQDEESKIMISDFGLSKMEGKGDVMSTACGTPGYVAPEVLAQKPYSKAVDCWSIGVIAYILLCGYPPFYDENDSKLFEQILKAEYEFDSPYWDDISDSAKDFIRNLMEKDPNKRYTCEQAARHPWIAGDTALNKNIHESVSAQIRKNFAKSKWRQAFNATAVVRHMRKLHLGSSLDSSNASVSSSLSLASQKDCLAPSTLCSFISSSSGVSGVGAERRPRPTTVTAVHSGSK
Format: cell-based
Outline: as §1
`C=CC(=O)N1CCC(CNc2nccc(Nc3ncc(C(=O)Nc4c(C)cccc4C)s3)n2)C1` (racemic) [Example I-8] was tested, and the “% change of MS signal” value was −14.1% and −8.7%.

These molecules were tested on IKKe, TBK1 (assay: KINATIV assay). Conditions: 1 μM, 90 minutes, BCWM.1 cells.
Format: cell-based
Outline: as §1
For `C=CC(=O)N1CCC(CNc2nccc(Nc3ncc(C(=O)Nc4c(C)cccc4C)s3)n2)C1` (racemic) [Example I-8], the “% change of MS signal” value was 5.5%.

The molecules below were run against MST4 (Homo sapiens (Human), UniProt Q9P289) (assay: KINATIV assay). Conditions: 1 μM, 90 minutes, BCWM.1 cells.
MST4, sequence (Q9P289 whole entry): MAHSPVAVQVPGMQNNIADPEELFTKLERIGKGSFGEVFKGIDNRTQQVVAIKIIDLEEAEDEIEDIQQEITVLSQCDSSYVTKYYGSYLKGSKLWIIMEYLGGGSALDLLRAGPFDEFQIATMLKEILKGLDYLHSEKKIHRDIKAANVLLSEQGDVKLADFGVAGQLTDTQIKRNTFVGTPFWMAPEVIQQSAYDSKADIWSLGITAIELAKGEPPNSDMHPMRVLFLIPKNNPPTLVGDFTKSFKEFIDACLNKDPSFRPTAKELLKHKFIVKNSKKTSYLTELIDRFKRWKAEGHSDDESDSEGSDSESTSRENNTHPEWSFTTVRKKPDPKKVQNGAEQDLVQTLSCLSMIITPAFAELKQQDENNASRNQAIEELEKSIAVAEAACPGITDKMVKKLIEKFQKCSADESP
Format: cell-based
Outline: as §1
For `C=CC(=O)N1CCC(CNc2nccc(Nc3ncc(C(=O)Nc4c(C)cccc4C)s3)n2)C1` (racemic) [Example I-8], the “% change of MS signal” value was −0.8%.

These molecules were tested on Wnk1, Wnk2, Wnk4 (assay: KINATIV assay). Conditions: 1 μM, 90 minutes, BCWM.1 cells.
Format: cell-based
Outline: as §1
`C=CC(=O)N1CCC(CNc2nccc(Nc3ncc(C(=O)Nc4c(C)cccc4C)s3)n2)C1` (racemic) [Example I-8] was tested, and the “% change of MS signal” value was −16.3%.

The molecules below were run against FRK (Homo sapiens (Human), UniProt P42685) (assay: KINATIV assay). Conditions: 1 μM, 90 minutes, BCWM.1 cells.
Format: cell-based
Outline: as §1
`C=CC(=O)N1CCC(CNc2nccc(Nc3ncc(C(=O)Nc4c(C)cccc4C)s3)n2)C1` (racemic) [Example I-8] was tested, and the “% change of MS signal” value was 95.3%.

Each molecule was assayed on FYN, SRC, YES (assay: KINATIV assay). Conditions: 1 μM, 90 minutes, BCWM.1 cells.
Format: cell-based
Outline: as §1
For `C=CC(=O)N1CCC(CNc2nccc(Nc3ncc(C(=O)Nc4c(C)cccc4C)s3)n2)C1` (racemic) [Example I-8], the “% change of MS signal” value was 97.9%.
